Results: PMC3857224, “Inhibition of DNA Glycosylases via Small Molecule Purine Analogs” (PLoS ONE, 2013)

What was measured:
Neil1-KO MEFs = experiment: cell survival assay (CellTiter Glo), Neil1-KO MEFs; format: cell-based, mouse; conditions: Neil1 knockout MEFs, 72 h exposure
Description: Wild-type or Neil1-KO MEFs were plated in a 96-well opaque walled dish (2000 cells/well) and incubated for 18 h to allow for attachment. Inhibitor (80 µL) diluted in DMEM was added to the cells at various concentrations ranging from 0–20 µM, and incubated for an additional 72 h. Cell viability was measured using the CellTiter Glo reagent (Promega, Madison, WI) and was prepared as per the manufacturer's instructions, with 50 µL of the reconstituted reagent added to each well. Cells were incubated for 10 min on an orbital shaker to induce cell lysis. Survival was measured by luminescence on a microplate reader (TECAN) and normalized to no-treatment control.
To experimentally address this question, mouse embryo fibroblasts from wild-type and Neil1 knockout mice were treated with increasing concentrations of P2, P6, P7, and P8. Cell survival was measured after a 72 h exposure. For all four compounds, the 37% survival was greater in the Neil1 knockout cells relative to the wild-type. The D37 ratios for WT: Neil1 were as follows: P2: 6∶10 µM; P6: 5∶8 µM; P7: 12∶15 µM; and P8: 7∶11 µM, respectively. […] In addition to modulating BER, there are potentially many other candidate enzymes that may be compromised by the introduction of these compounds, including but not limited to kinases, DNA and RNA polymerases, other DNA repair complexes or helicases. However, given that the concentrations of these compounds are several orders of magnitude higher than what would be considered as a pharmacologically-relevant dose, detailed mechanistic analyses of the current set of compounds is highly premature. Such studies and the development of appropriate cell culture and animal models will need to be generated concomitantly with the evolution of higher affinity, greater specificity molecules.

NEIL1 [1] = target: T1, NEIL1 (Homo sapiens, UniProt Q96FI4); experiment: NEIL1 excision of FapyAde and FapyGua from γ-irradiated calf thymus DNA by GC-MS/MS; format: biochemical; conditions: 10 µL of 2 mM inhibitor in DMSO, 1 h 37°C
T1 construct: made in house
Description: The enzymatic activity of NEIL1 was measured using gas chromatography/isotope-dilution tandem mass spectrometry (GC-MS/MS) and calf thymus DNA samples γ-irradiated at 20 Gy as described, [30]. Aliquots of FapyAde-^13C,^15N2 and FapyGua-^13C,^15N2 were added as internal standards to 50 µg of DNA samples. After drying in a SpeedVac, DNA samples were dissolved in 50 µL of an incubation buffer consisting of 50 mM phosphate buffer (pH 7.4), 100 mM KCl, 1 mM EDTA, and 0.1 mM dithiothreitol, and then incubated with 2 µg NEIL1 for 1 h at 37°C without any inhibitor, DMSO alone, or with 10 µL of an inhibitor solution in DMSO (2 mM). After incubation, 150 µL of cold ethanol was added. The samples were kept at −20°C for 1 h and then centrifuged with 14,000 g for 30 min at 4°C. The supernatant fractions were separated and ethanol removed in a SpeedVac under vacuum. The samples were then frozen in liquid nitrogen and lyophilized overnight. To fully remove DMSO that would interfere with GC-MS/MS analysis, 500 µL water were added to the samples followed by lyophilization overnight. This procedure was repeated twice. Dried samples were derivatized and analyzed by GC-MS/MS as described, [30]. For each data point, three independently prepared samples were used.
Although Gh and Sp are excellent substrates for NEIL1, these are likely not to be the biologically relevant substrates. Thus, to determine if the compounds that were identified above were effective in the inhibition of NEIL1 against its biologically relevant substrates FapyAde and FapyGua, [6], γ-irradiated calf thymus DNA was used as a substrate. The excision by NEIL1 of these substrates from DNA was measured by GC-MS/MS with isotope-dilution. Figure 8 illustrates the excision of FapyAde and FapyGua by NEIL1 from γ-irradiated calf thymus DNA in the absence or presence of inhibitors. […] Some inhibition by DMSO alone was also observed when compared with excision by NEIL1 alone (p = 0.01). However, when compared to DMSO, the inhibitions by P2, P6, P7 and P8 were highly significant (p<0.005). […] A p-value<0.05 was assumed to correspond to statistical significance.

NEIL1 [2] = target: T1, NEIL1; experiment: gel-based incision assay of oligodeoxynucleotides containing site-specific base lesions; format: biochemical; conditions: polyacrylamide gel, reaction quenched at 20 min
Description: The 384-well fluorogenic assay was carried out in a 20 µL reaction mixture in 20 mM Tris-HCl pH 8.0, 100 mM KCl, and 0.1% BSA, with 5 nM active enzyme and 50 nM substrate. Possible inhibitors were incubated with the enzyme for at least 5 min at room temperature in a black, low-volume 384-well plate before addition of an equal volume of substrate to start the reaction. The plates were spun for 30 s at 1000 rcf to remove bubbles. The reactions were incubated at 37°C and fluorescence data collected on an Infinite M200 (Tecan, Mannedorf, Switzerland) equipped with standard optics (excitation filter 525 nm, and emission filter 598 nm). For the gel-based assay, reactions were initiated as described for the fluorogenic assay, but quenched with 20 µL 95% formamide at 20 min. The products were separated by electrophoresis through a 15% polyacrylamide gel containing 8 M urea and visualized by a Typhoon scanner (GE Life Sciences, Piscataway, NJ). The fraction of cleaved product was measured using ImageQuant software and analyzed using GraphPad Prism 6. […]

NEIL1 [3] = target: T1, NEIL1; experiment: qHTS fluorogenic glycosylase/AP lyase assay, 1536-well, Sp/Gh substrate; format: biochemical; conditions: 5 concentrations
Description: The fluorogenic assay was miniaturized to 4 µL in 1536-well black solid plates by optimization of the enzyme and Sp/Gh substrate concentrations. Briefly, 3 µL of 25 nM NEIL1 were dispensed into each well of a 1536-well plate (except buffer in columns 3 and 4 as a negative control). Compounds (DMSO solutions) and control (DMSO only) (23 nL) were transferred to the plate via Kalypsys pintool. The plate was incubated for 15 min at room temperature, and then 1 µL of the Sp/Gh-containing DNA substrate (75 nM final concentration) was added to start the reaction. The plate was immediately transferred into the ViewLux reader for the kinetic fluorescence read. Initial rate data were normalized against uninhibited and no-enzyme controls and the resulting percent activities as a function of compound concentration were fitted using the Hill equation.
Having established the general principle for a glycosylase screening assay, further assay development was undertaken to enable HTS in which the reaction volumes were reduced by 5-fold to a total of 4 µL. Initially, the library of pharmacologically active compounds (LOPAC^1280) was screened for inhibitors of NEIL1 as a determination of the feasibility of this high-throughput method. […] All compounds were screened at 5 different concentrations that allowed for the initial estimation of inhibitory potency (IC50) values, as well as an evaluation of the shape of the response curves. In addition to the anticipated inhibitors (known DNA intercalators, such as ellipticine (IC50 = 2 µM)) and other small molecules that have been previously established to be promiscuous inhibitors (such as aurintricarboxylic acid (IC50<1 µM)), one interesting hit from this screen was CGP-74514A (NCGC ID is NCGC00015229) (Figure 5A). CGP-74514A is a known small molecule inhibitor of Cdk1 in which the structure of this molecule is based on a purine ring backbone.

T1 sequence (Q96FI4 whole entry): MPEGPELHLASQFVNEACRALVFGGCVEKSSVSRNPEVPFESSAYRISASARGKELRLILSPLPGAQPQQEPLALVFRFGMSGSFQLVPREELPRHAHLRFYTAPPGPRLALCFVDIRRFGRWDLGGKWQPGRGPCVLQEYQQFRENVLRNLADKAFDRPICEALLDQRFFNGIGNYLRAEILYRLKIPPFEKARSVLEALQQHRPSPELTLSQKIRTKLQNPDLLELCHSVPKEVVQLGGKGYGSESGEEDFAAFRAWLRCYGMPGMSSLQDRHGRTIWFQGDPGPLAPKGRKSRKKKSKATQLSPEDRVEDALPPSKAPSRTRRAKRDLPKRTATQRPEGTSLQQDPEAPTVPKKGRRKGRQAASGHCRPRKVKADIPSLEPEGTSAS

| Structure (SMILES) | D37 (37% survival) (Neil1-KO MEFs) [µM] | inhibition of NEIL1 excision of FapyAde and FapyGua (NEIL1 [1]) | IC50 (NEIL1 [2]) [µM] | IC50 (NEIL1 [3]) [µM] |
| --- | --- | --- | --- | --- |
| Cc1cc(/C=C/C#N)cc(C)c1Nc1nc(Nc2ccc3scnc3c2)c2nc[nH]c2n1 [Purine P2] | 10 | significantly reduced the activity of NEIL1 | 28 | 4 |
| Cc1nc2ccc(Nc3nc(Nc4c(C)cc(/C=C/C#N)cc4C)nc4[nH]cnc34)cc2s1 [Purine P6] | 8 | significantly reduced the activity of NEIL1 | 9.2 | 7.9 |
| Cc1cc(/C=C/C#N)cc(C)c1Nc1nc(Nc2ccc3c(c2)CCC3)c2nc[nH]c2n1 [Purine P7] | 15 | significantly reduced the activity of NEIL1 | 11.7 | 8.9 |
| Cc1cc(/C=C/C#N)cc(C)c1Nc1nc(Nc2ccc3c(c2)OCO3)c2nc[nH]c2n1 [Purine P8] | 11 | significantly reduced the activity of NEIL1 | 15.2 | 10 |
